Data reported in patent US6627218B2, “Cationic amphiphiles of cholesterol” (The University of Tennessee Research Foundation, priority 1991, dated 2003).
Counter-ions that a name gives are not always drawn.

Legend:
protein kinase C (PKC) = assay: Mixed micelle assay of protein kinase C; assay type: biochemical, rat; conditions: pure cationic cholesterol derivative; diolefin, phosphatidyl serine and Ca2+ stimulated PKC; read-out: PKC Inhibition IC50
Experimental: As rapidly as possible, brains for 25 Sprague-Dawley rats (150-200 g) were removed, washed with 100 ml of 20 mM TRIS, 1 mM EDTA, 1 mM EGTA, pH 7.5, and homogenized in 150 ml of ice cold 20 mM TRIS, 10 mM EGTA, 2 mM EDTA, 10 mM DTT, 0.25 M sucrose, 2 mM PMSF and 100 μg/ml leupeptin, pH 7.5. The homogenate was immediately centrifuged at 100,000 g for 40 minutes at 4° C. in a Beckman Ti 50.2 rotor. The supernatant was applied to a 2.5×20 cm column of DEAE Sepharose (fast flow) containing 60 of resin equilibrated with 20 mM TRIS, 1 mM EDTA, 1 mM DTT, pH 7.5 (buffer A). The column was washed with 300 ml of buffer A and an additional 200 ml of buffer A containing 0.03 M KCl. Protein kinase C was eluted with a 500 ml continuous KCl gradient (0.03-0.3 M KCl). Fractions of 5 ml volumes were collected. Fractions showing calcium and phospholipid dependence were pooled; the salt concentration was adjusted to 1.5 KCl with the appropriate quantity of solid KCl. The crude sample containing 1.5 M KCl was stirred for 15 minutes and subsequently loaded onto a 1×10 cm column containing 9 ml Phenyl sepharose equilibrated with 1.5 M KCl in 20 mM TRIS, 0.5 mM EGTA, 1 mM DTT, pH 7.5 (buffer B). The column was washed with 90 ml of buffer B containing 1.5 M KCl. PKC was eluted with a 100 ml continuous KCl gradient (1.5-0 M KCl). Fractions of 3 ml volumes were collected. The column was washed with an additional 50 ml of buffer B. Most of the enzyme activity eluted during this stage. Fractions showing calcium and phospholipid dependence were pooled and concentrated to 4 ml using an Amicon ultrafiltration cell fitted with a YM-10 filter. The concentrated sample was loaded onto a 2.5×100 cm column containing 400 ml of Sephacryl S-200 HR beads equilibrated with buffer B containing 10% glycerol (buffer C). Fractions of 3 ml volumes were collected. About 150 ml of buffer was run through; PKC eluted very close to the column void volume. The fractions showing calcium and phospholipid dependence were pooled and loaded onto a 0.5×5 cm column containing 2.5 ml polylysine agarose equilibrated with buffer C. PKC was eluted with a 40 ml continuous KCl gradient (0-0.8 M KCl). Fractions of 1 ml volumes were collected. The first few active fractions were contaminated. The uncontaminated fractions were pooled, concentrated, and diluted with buffer C to remove the high salt content. After reconcentrating, the sample was divided into working portions, frozen in liquid nitrogen and stored at −80° C. Full activity was regained after rapid thawing. Trace impurities (116 k, 66 k, and 50 k Mr) could still be detected when the gel was silver stained heavily. The enzyme gave a specific activity of 200 nmoles phosphate incorporated per minute per milligram of protein when assayed for histone phosphorylation using the Triton mixed micelle assay with 6.5 mole % phosphatidylserine, 2.5 mole % DAG and 100 μM calcium present. Specific activities ranging from 30 nmoles/min/mg to 600 nmoles/min/mg have been observed for PKC using the Triton mixed micelle assay under the same conditions.
Phosphatidylserine and 1,2-diolefin with and without additive were dissolved in a solution of chloroform/methanol (2:1, v/v). Solvent was evaporated with a stream of nitrogen and last traces removed using a vacuum desiccator at 40° C. The lipid films were then solubilized by the addition of 3% Triton X-100, vortexed vigorously for 30 seconds and then incubated at 30° C. for 10 minutes to allow for equilibration. […]

mouse L929 cells [1] = assay: Transfection of L929 cells with pUCSV2CAT, CAT activity; assay type: cell-based; design: Relative CAT Activity: scale not given here; conditions: for Relative CAT Activity: dispersion with co-lipid DOPE, plasmid pUCSV2CAT, L929 cells
Experimental: (§1) The cationic cholesterol derivatives of the invention were mixed with a phospholipid co-lipid in chloroform solution at different molar ratios. The solvent was removed by evaporation under a stream of N2 gas and desiccated in vacuo for at least 30 minutes. The dry lipid film was hydrated in 20 mM Hepes buffer, pH 7.8, overnight. The suspension was sonicated in a bath-type sonicator (Laboratory Supplies, Hicksville, N.Y.) to generate small particle dispersions (average diameter=150 nm). The co-lipid is phosphatidylethanolamine.
Plasmid pUCSV2CAT (approximately 5kb in size) containing the structural gene of E. coli chloramphenicol acetyl transferase (CAT) driven by the SV40 virus early promoter was used as a model for the polyanions to be delivered by the cationic lipid dispersions. DNA was mixed with the cationic lipid dispersions of the invention in 1 ml serum-free M199 medium or McCoy's medium to form DNA/lipid complex. Cultured mammalian cells of about 80-100% confluency in a 6-well plate were washed once with serum-free medium. The DNA/lipid complex was added to the washed cells which were incubated at 37° C. for 5 hours. The cells were washed again and the serum-containing medium was added. Cells were harvested 30-72 hours later and extracted for cellular proteins. The CAT activity in the extracted protein was measured by using either [^14C] chloramphenicol or [^3H] acetyl CoA as a radiolabeled substrate. One activity unit of CAT is defined as nmole of radiolabeled substrate converted to the radiolabeled product in one minute. Protein content in the cell extracts was measured by the Bradford (BIORAD) assay.
Plasmid DNA, pUCSV2CAT, was used as a model compound for polyanions because it contains a structural gene for CAT. The efficiency of intracellular delivery can be readily assayed by the expression of CAT activity in the extracted proteins of the treated cells. Table 1 lists the CAT activity of mouse L929 cells which have been transfected with this plasmid DNA as mediated by various cationic lipid dispersions. In addition, the inhibitory activity of the pure cationic cholesterol derivatives on diolefin, phosphatidyl serine (PS), and Ca^2+stimulated protein kinase C was also measured. This activity was expressed as an IC50 which is the concentration at which 50% of PKC activity was inhibited.

mouse L929 cells [2] = assay: as above; assay type: cell-based; conditions: molar ratio 1:1, L929 cells (FIG. 4)
[3] = Formation of homogenous dispersion by sonication; assay type: physicochemical; conditions: sonication in low ionic strength buffer
Experimental: as §1
None of the cationic cholesterol derivatives by themselves form stable homogenous dispersion by sonication in a low ionic strength buffer. When stable dispersions are desired, it was necessary to add an acidic or neutral phospholipid to form mixed lipid dispersion. […] In the case of compound XIV, a minimal ration of phosphatidyl choline (PC) or phosphatidyl ethanolamine (PE) to XIV=4:6 is required. Such non-cationic lipid used in the dispersion is called co-lipid.

CC(C)CCCC(C)C1CCC2C3CC=C4CC(C(=O)OC(CN(C)C)C[N+](C)(C)C)CCC4(C)C3CCC12C (racemic) [Compound VI, 1-Dimethylamino-3-Trimethylammonio-DL-2-Propyl Cholesteryl Carboxylate Iodide Salt]
IC50 (protein kinase C (PKC)): 11 µM

3β[N-(polyethyleneimine)-carbamoyl]cholesterol [XV]
Relative CAT Activity (mouse L929 cells [1]): 11

CC(C)CCCC(C)C1CCC2C3CC=C4CC(OC(=O)CCC(=O)OCCN(C)CC[N+](C)(C)C)CCC4(C)C3CCC12C (stereo not drawn) [XIII, 2-{[2-Trimethylammonio]ethylmethylamino}ethyl-Cholesteryl-3β-Oxysuccinate Iodine Salt]
IC50 (protein kinase C (PKC)): 20 µM

CC(C)CCCC(C)C1CCC2C3CC=C4CC(OC(=O)CCC(=O)OC(CN(C)C)CN(C)C)CCC4(C)C3CCC12C (stereo not drawn) [Compound X, 1,3-Bi-Dimethylamino-2-Propyl-Cholesteryl-3β-Oxysuccinate]
IC50 (protein kinase C (PKC)): 408 µM | Relative CAT Activity (mouse L929 cells [1]): 0.5

CC(C)CCCC(C)C1CCC2C3CC=C4CC(OC(=O)CCC(=O)OC(CN(C)C)C[N+](C)(C)C)CCC4(C)C3CCC12C (racemic) [Compound XI, 1-Dimethylamino-3-Trimethylammonio-DL-2-Propyl-Cholesteryl-3β-Oxysuccinate Iodide Salt]
IC50 (protein kinase C (PKC)): 15 µM

CC(C)CCCC(C)C1CCC2C3CC=C4CC(C(=O)NCCN)CCC4(C)C3CCC12C (stereo not drawn) [Compound VII, Cholesteryl-3β-Carboxyamidoethyleneamine]
IC50 (protein kinase C (PKC)): 246 µM

CC(C)CCCC(C)C1CCC2C3CC=C4CC(OC(=O)CCC(=O)NCCN(C)C)CCC4(C)C3CCC12C (stereo not drawn) [VIII, Cholesteryl-3β-oxysuccinamidoethylenedimethylamine]
IC50 (protein kinase C (PKC)): 191 µM | DNA delivery activity of mixed dispersion (mouse L929 cells [2]; acidic co-lipids PS and PG): None of the acidic lipids, such as PS and phosphatidylglycerol (PG) showed any activity | DNA delivery activity of mixed dispersion (mouse L929 cells [2]; other neutral co-lipids DOPC, N-methyl-DOPE, N,N-dimethyl DOPE): little or no activity | Minimal ratio of co-lipid (PC or PE) to cationic lipid required to form a uniform dispersion [3]: 1 part of PC or PE and 9 parts of compound VIII | Content of cationic lipid in DOPE dispersion at maximal DNA delivery activity (mouse L929 cells [1]; DOPE co-lipid, L929 cells (FIG. 5)): 20-50% | DNA delivery activity of mixed dispersion (mouse L929 cells [1]; co-lipid DOPE, molar ratio 1:1, L929 cells (FIG. 4)): only DOPE supported the delivery activity | Relative CAT Activity (mouse L929 cells [1]): 100

CC(C)CCCC(C)C1CCC2C3CC=C4CC(C(=O)NCC[N+](C)(C)C)CCC4(C)C3CCC12C (stereo not drawn) [IV, Cholesteryl-3β-Carboxyamidoethylenetrimethylammonium Iodide]
IC50 (protein kinase C (PKC)): 12 µM

CC(C)CCCC(C)C1CCC2C3CC=C4CC(C(=O)NCCN(C)C)CCC4(C)C3CCC12C (stereo not drawn) [Compound III, Cholesteryl-3β-Carboxyamidoethylenedimethylamine]
IC50 (protein kinase C (PKC)): 258 µM | melting point: 167 to 169 °C | Relative CAT Activity (mouse L929 cells [1]): 18

CC(C)CCCC(C)C1CCC2C3CC=C4CC(C(=O)OC(CN(C)C)CN(C)C)CCC4(C)C3CCC12C (stereo not drawn) [Compound V, 1,3-Bis-Dimethylamino-2-Propyl-Cholesteryl-3β-Carboxylate]
IC50 (protein kinase C (PKC)): 643 µM | Relative CAT Activity (mouse L929 cells [1]): 2

CC(C)CCCC(C)C1CCC2C3CC=C4CC(OC(=O)NCCN(C)C)CCC4(C)C3CCC12C (stereo not drawn) [Compound XIV, 3β[N-(N′,N′-dimethylaminoethane)-carbamoyl]cholesterol]
IC50 (protein kinase C (PKC)): > 1000 µM | Relative CAT Activity (mouse L929 cells [1]): 75

CC(C)CCCC(C)C1CCC2C3CC=C4CC(OC(=O)CCC(=O)NCC[N+](C)(C)C)CCC4(C)C3CCC12C (stereo not drawn) [IX, Cholesteryl-3β-Oxysuccinamidoethylenetrimethylammonium Iodide]
IC50 (protein kinase C (PKC)): 59 µM | Relative CAT Activity (mouse L929 cells [1]): 50

CC(C)CCCC(C)C1CCC2C3CC=C4CC(OC(=O)CCC(=O)OCCN(C)CCN(C)C)CCC4(C)C3CCC12C (stereo not drawn) [XII, 2-{[2-(dimethylamino)ethyl]methylamino}ethyl-Cholesteryl-3β-Oxysuccinate]
IC50 (protein kinase C (PKC)): 164 µM | melting point: 50 to 52 °C | Relative CAT Activity (mouse L929 cells [1]): 19
